Source: paper PMC10120512, “Benzenesulfonamide derivatives as Vibrio cholerae carbonic anhydrases inhibitors: a computational-aided insight in the structural rigidity-activity relationships” (Journal of Enzyme Inhibition and Medicinal Chemistry, 2023)

Key:
VchαCA [1] = molecular target: VchαCA (Vibrio cholerae, UniProt Q9KMP6); assay: biochemical; format: biochemical
VchαCA [2] = assay: biochemical; format: biochemical; details: for SI [ KI hCA I/KI VchαCA ]: selectivity index hCA I over VchαCA; for SI [ KI hCA II/KI VchαCA ]: selectivity index hCA II over VchαCA
VchβCA = VchβCA (Vibrio cholerae, UniProt A0A086SLX8); assay: biochemical
VchγCA = VchγCA (Vibrio cholerae, UniProt Q9KVT1); assay: biochemical
[3] = test system: clinical isolates of V. cholerae (SI-Vc22, SI-Vc71, SI-Vc912); assay: Direct antibacterial activity, agar diffusion method; format: cell-based; details: for inhibition zone diameter: all the isolates, data not shown; for all read-outs here: test concentration or dose not given here

VchγCA, sequence (Q9KVT1 1-184): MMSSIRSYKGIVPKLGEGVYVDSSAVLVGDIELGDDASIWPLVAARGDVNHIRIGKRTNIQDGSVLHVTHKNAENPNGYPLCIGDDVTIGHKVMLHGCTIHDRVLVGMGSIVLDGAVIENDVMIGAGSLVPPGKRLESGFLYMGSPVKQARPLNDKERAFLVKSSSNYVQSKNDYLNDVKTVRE
VchαCA (Vibrio cholerae, UniProt Q9KMP6), sequence (Q9KMP6 entry or part of it): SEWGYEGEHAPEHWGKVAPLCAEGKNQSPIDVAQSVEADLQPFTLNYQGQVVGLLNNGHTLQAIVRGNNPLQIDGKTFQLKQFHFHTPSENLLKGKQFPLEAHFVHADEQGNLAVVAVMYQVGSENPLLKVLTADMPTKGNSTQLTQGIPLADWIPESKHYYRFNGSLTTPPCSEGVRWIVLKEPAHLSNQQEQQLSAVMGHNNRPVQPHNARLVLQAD
VchβCA, sequence (A0A086SLX8 entry or part of it): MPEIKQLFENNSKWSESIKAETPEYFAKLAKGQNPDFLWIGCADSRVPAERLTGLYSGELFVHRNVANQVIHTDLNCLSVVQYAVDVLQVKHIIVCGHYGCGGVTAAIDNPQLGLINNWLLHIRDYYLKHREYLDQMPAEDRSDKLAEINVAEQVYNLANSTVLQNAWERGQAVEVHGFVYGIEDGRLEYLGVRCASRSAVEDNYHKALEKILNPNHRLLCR

NS(=O)(=O)c1ccc(NCCNc2ccccc2)cc1 [1a]
Ki (VchαCA [1]): 0.0781 µM
SI [ KI hCA I/KI VchαCA ] (VchαCA [2]): 0.3
SI [ KI hCA II/KI VchαCA ] (VchαCA [2]): 0.1
Ki (VchβCA): 18.3 µM

NS(=O)(=O)c1ccc(NC(=O)CNc2ccccc2)cc1 [1b]
Ki (VchαCA [1]): 0.053 µM
SI [ KI hCA I/KI VchαCA ] (VchαCA [2]): 1.2
SI [ KI hCA II/KI VchαCA ] (VchαCA [2]): 0.1
Ki (VchβCA): 17.7 µM
Ki (VchγCA): 49.4 µM

NS(=O)(=O)c1ccc(N2CCN(c3ccccc3)C2=O)cc1 [1c]
Ki (VchαCA [1]): 0.0071 µM
SI [ KI hCA I/KI VchαCA ] (VchαCA [2]): 7.7
SI [ KI hCA II/KI VchαCA ] (VchαCA [2]): 0.6
Ki (VchβCA): 134 µM
Ki (VchγCA): 5 µM

Cc1ccc(NCCNc2ccc(S(N)(=O)=O)cc2)cc1 [2a]
Ki (VchαCA [1]): 0.0431 µM
SI [ KI hCA I/KI VchαCA ] (VchαCA [2]): 0.2
SI [ KI hCA II/KI VchαCA ] (VchαCA [2]): 0.1
Ki (VchβCA): 16.8 µM
Ki (VchγCA): 39.9 µM

Cc1ccc(NCC(=O)Nc2ccc(S(N)(=O)=O)cc2)cc1 [2b]
Ki (VchαCA [1]): 0.0431 µM
SI [ KI hCA I/KI VchαCA ] (VchαCA [2]): 0.2
SI [ KI hCA II/KI VchαCA ] (VchαCA [2]): 1.9
Ki (VchβCA): 97 µM
Ki (VchγCA): 82.6 µM

Cc1ccc(N2CCN(c3ccc(S(N)(=O)=O)cc3)C2=O)cc1 [2c]
Ki (VchαCA [1]): 0.027 µM
SI [ KI hCA I/KI VchαCA ] (VchαCA [2]): 0.60
SI [ KI hCA II/KI VchαCA ] (VchαCA [2]): 0.14
Ki (VchβCA): 83.6 µM
Ki (VchγCA): 3.5 µM

NS(=O)(=O)c1ccc(NCCNc2ccc(Cl)cc2)cc1 [3a]
Ki (VchαCA [1]): 0.0274 µM
SI [ KI hCA I/KI VchαCA ] (VchαCA [2]): 1.4
SI [ KI hCA II/KI VchαCA ] (VchαCA [2]): 1.7
Ki (VchβCA): 53.8 µM

NS(=O)(=O)c1ccc(NC(=O)CNc2ccc(Cl)cc2)cc1 [3b]
Ki (VchαCA [1]): 0.066 µM
SI [ KI hCA I/KI VchαCA ] (VchαCA [2]): 0.3
SI [ KI hCA II/KI VchαCA ] (VchαCA [2]): 0.1
growth inhibition against at least one of the clinical isolates ([3]; 2 μL spot, 37 °C, 24 h): moderate growth inhibition
Ki (VchβCA): 116 µM
Ki (VchγCA): 86.9 µM

NS(=O)(=O)c1ccc(N2CCN(c3ccc(Cl)cc3)C2=O)cc1 [3c]
Ki (VchαCA [1]): 0.047 µM
SI [ KI hCA I/KI VchαCA ] (VchαCA [2]): 4.1
SI [ KI hCA II/KI VchαCA ] (VchαCA [2]): 1.0
Ki (VchβCA): 106 µM
Ki (VchγCA): 50.2 µM

NS(=O)(=O)c1ccc(NCCNc2ccc(I)cc2)cc1 [4a]
Ki (VchαCA [1]): 0.065 µM
SI [ KI hCA I/KI VchαCA ] (VchαCA [2]): 12.1
SI [ KI hCA II/KI VchαCA ] (VchαCA [2]): 9.9
Ki (VchβCA): 136 µM

NS(=O)(=O)c1ccc(NC(=O)CNc2ccc(I)cc2)cc1 [4b]
Ki (VchαCA [1]): 0.0228 µM
Ki (VchβCA): 157 µM
Ki (VchγCA): 72.5 µM

NS(=O)(=O)c1ccc(N2CCN(c3ccc(I)cc3)C2=O)cc1 [4c]
Ki (VchαCA [1]): 0.013 µM
SI [ KI hCA I/KI VchαCA ] (VchαCA [2]): 7.1
SI [ KI hCA II/KI VchαCA ] (VchαCA [2]): 1.0
inhibition zone diameter [3]: 3–5 mm
Ki (VchβCA): 116 µM
Ki (VchγCA): 72.2 µM

NS(=O)(=O)c1ccc(NCCNc2ccccc2Br)cc1 [5a]
Ki (VchαCA [1]): 0.0641 µM
SI [ KI hCA I/KI VchαCA ] (VchαCA [2]): 14.7
SI [ KI hCA II/KI VchαCA ] (VchαCA [2]): 14.2
Ki (VchβCA): 89.2 µM

NS(=O)(=O)c1ccc(NC(=O)CNc2ccccc2Br)cc1 [5b]
Ki (VchαCA [1]): 0.062 µM
Ki (VchβCA): 47.4 µM
Ki (VchγCA): 87.7 µM

NS(=O)(=O)c1ccc(N2CCN(c3ccccc3Br)C2=O)cc1 [5c]
Ki (VchαCA [1]): 0.0472 µM
SI [ KI hCA I/KI VchαCA ] (VchαCA [2]): 0.1
SI [ KI hCA II/KI VchαCA ] (VchαCA [2]): 0.1
Ki (VchγCA): 73.2 µM

NS(=O)(=O)c1ccc(NCCNc2ccccc2F)cc1 [6a]
Ki (VchαCA [1]): 0.0362 µM
SI [ KI hCA I/KI VchαCA ] (VchαCA [2]): 2.1
SI [ KI hCA II/KI VchαCA ] (VchαCA [2]): 0.2
Ki (VchβCA): 101 µM
Ki (VchγCA): 73.7 µM

NS(=O)(=O)c1ccc(NC(=O)CNc2ccccc2F)cc1 [6b]
Ki (VchαCA [1]): 0.079 µM
SI [ KI hCA I/KI VchαCA ] (VchαCA [2]): 0.2
SI [ KI hCA II/KI VchαCA ] (VchαCA [2]): 0.1
Ki (VchβCA): 51.4 µM
Ki (VchγCA): 93.1 µM

NS(=O)(=O)c1ccc(N2CCN(c3ccccc3F)C2=O)cc1 [6c]
Ki (VchαCA [1]): 0.0097 µM
inhibition zone diameter [3]: 3–5 mm
Ki (VchγCA): 82.8 µM

Cc1cccc(NCCNc2ccc(S(N)(=O)=O)cc2)n1 [7a]
Ki (VchαCA [1]): 0.037 µM
SI [ KI hCA I/KI VchαCA ] (VchαCA [2]): 2.4
SI [ KI hCA II/KI VchαCA ] (VchαCA [2]): 0.9
Ki (VchβCA): 19 µM
Ki (VchγCA): 69.8 µM

Cc1cccc(NCC(=O)Nc2ccc(S(N)(=O)=O)cc2)n1 [7b]
Ki (VchαCA [1]): 0.017 µM
SI [ KI hCA I/KI VchαCA ] (VchαCA [2]): 0.9
SI [ KI hCA II/KI VchαCA ] (VchαCA [2]): 0.3
Ki (VchβCA): 73.1 µM
Ki (VchγCA): 59.8 µM

Cc1cccc(N2CCN(c3ccc(S(N)(=O)=O)cc3)C2=O)n1 [7c]
Ki (VchαCA [1]): 0.011 µM
SI [ KI hCA I/KI VchαCA ] (VchαCA [2]): 5.0
SI [ KI hCA II/KI VchαCA ] (VchαCA [2]): 0.7
Ki (VchβCA): 122 µM
Ki (VchγCA): 80.2 µM

NS(=O)(=O)c1ccc(NCCNCc2ccccc2)cc1 [8a]
Ki (VchαCA [1]): 0.023 µM
SI [ KI hCA I/KI VchαCA ] (VchαCA [2]): 7.4
SI [ KI hCA II/KI VchαCA ] (VchαCA [2]): 1.4
Ki (VchβCA): 12.4 µM
Ki (VchγCA): 52.7 µM
